Measured values taken from ChEMBL document CHEMBL3600381, “Small-molecule phosphodiesterase probes: discovery of potent and selective CNS-penetrable quinazoline inhibitors of PDE1” (Medchemcomm, 2014).

Columns and labels:
[1] = biological target: cAMP and cAMP-inhibited cGMP 3',5'-cyclic phosphodiesterase 10A (Homo sapiens, UniProt Q9Y233); assay: Inhibition of PDE10A (unknown origin)
[2] = biological target: T1, Dual specificity calcium/calmodulin-dependent 3',5'-cyclic nucleotide phosphodiesterase 1B (Homo sapiens, UniProt Q01064); assay: Inhibition of PDE1B (unknown origin) at 1 uM
T1 sequence (Q01064 whole entry): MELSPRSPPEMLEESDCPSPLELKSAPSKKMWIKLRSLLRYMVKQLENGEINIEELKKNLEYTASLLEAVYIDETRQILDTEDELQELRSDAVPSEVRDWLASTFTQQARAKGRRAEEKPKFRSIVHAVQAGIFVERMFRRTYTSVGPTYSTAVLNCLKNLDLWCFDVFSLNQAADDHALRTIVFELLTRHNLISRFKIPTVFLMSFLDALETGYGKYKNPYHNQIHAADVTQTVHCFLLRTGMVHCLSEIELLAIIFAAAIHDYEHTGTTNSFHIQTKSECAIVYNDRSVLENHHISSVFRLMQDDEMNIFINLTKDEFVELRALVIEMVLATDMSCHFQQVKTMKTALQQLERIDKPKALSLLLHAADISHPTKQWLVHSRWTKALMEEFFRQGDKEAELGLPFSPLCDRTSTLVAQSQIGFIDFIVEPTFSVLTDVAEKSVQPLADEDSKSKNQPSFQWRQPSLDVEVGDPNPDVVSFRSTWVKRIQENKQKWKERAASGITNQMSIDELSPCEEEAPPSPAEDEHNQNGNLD

[3] = biological target: T1, Dual specificity calcium/calmodulin-dependent 3',5'-cyclic nucleotide phosphodiesterase 1B; assay: Inhibition of PDE1B (unknown origin)
[4] = Tmax in mouse at 32 mg/kg, sc; type: ADME, organism-based; settings: in vivo
[5] = Half life in mouse at 32 mg/kg, sc; type: ADME, organism-based; settings: in vivo
[6] = Fraction unbound in mouse at 32 mg/kg, sc; type: ADME, organism-based; settings: in vivo
Nucleic Acid [7] = assay: Ratio of drug uptake from blood to plasma in mouse at 32 mg/kg, sc; type: ADME, organism-based; settings: in vivo
[8] = Tmax in rat at 10 mg/kg, sc; type: ADME, organism-based; settings: in vivo
[9] = Half life in rat at 10 mg/kg, sc; type: ADME, organism-based; settings: in vivo
[10] = Fraction unbound in rat at 10 mg/kg, sc; type: ADME, organism-based; settings: in vivo
[11] = Ratio of drug uptake from blood to plasma in rat at 10 mg/kg, sc; type: ADME, organism-based; settings: blood and plasma
Nucleic Acid [12] = assay: Ratio of drug level in CSF to unbound fraction in rat plasma at 10 mg/kg, sc; type: ADME, organism-based; settings: in vivo
[13] = Cmax in rat at 50 mg/kg, po after 0.25 hrs; type: ADME, organism-based; parameters: dose 50 mg/kg, route oral; settings: in vivo
[14] = Terminal half life in rat at 50 mg/kg, po; type: ADME, organism-based; settings: in vivo, read-out: beta t1/2 (converted)

Chain of cAMP and cAMP-inhibited cGMP 3',5'-cyclic phosphodiesterase 10A (Q9Y233 whole entry): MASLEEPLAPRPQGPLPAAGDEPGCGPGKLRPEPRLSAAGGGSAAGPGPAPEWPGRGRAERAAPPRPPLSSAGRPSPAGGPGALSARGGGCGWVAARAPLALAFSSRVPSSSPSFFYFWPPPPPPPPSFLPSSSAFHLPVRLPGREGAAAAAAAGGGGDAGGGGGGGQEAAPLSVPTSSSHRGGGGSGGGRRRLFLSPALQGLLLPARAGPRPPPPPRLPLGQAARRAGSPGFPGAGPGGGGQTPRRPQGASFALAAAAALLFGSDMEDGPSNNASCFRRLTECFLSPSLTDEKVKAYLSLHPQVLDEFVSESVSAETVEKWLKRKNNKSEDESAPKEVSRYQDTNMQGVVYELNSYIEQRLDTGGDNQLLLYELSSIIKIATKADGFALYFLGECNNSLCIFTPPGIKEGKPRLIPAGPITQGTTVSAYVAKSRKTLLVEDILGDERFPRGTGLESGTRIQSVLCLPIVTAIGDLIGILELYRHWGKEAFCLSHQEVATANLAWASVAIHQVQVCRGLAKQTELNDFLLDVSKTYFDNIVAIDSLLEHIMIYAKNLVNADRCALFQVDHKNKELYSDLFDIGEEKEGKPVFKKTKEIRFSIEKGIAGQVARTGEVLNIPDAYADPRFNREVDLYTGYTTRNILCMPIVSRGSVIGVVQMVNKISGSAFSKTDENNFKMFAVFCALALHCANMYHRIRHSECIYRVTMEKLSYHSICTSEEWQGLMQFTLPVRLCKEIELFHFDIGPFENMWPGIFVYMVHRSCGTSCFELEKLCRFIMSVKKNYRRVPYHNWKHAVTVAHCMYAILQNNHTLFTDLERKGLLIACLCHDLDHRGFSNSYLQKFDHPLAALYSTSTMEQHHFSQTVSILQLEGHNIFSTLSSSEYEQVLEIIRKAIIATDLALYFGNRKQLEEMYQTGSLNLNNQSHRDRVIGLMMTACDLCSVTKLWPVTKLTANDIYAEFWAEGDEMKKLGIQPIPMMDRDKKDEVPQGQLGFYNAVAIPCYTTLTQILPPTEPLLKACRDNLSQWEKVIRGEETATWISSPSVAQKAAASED

SMILES	inhibition [2]	IC50 [3]	further results
COc1cc2nncc(N3CC(O)CC(c4ccccc4)C3)c2cc1OC (stereo not drawn)	–	–	IC50 [1]: 1 nM
COc1cc2cnnc(N3CC(O)CC(c4ccccc4)C3)c2cc1OC (stereo not drawn)	–	–	IC50 [1]: 3 nM
COc1cc2ncnc(Cc3ccccc3)c2cc1OC	0%	–	–
COc1ccc2c(C3CCc4ccc(Cl)cc43)ncnc2c1OC (stereo not drawn)	–	4 nM	–
CCC(CC)Nc1ncnc2c(OC)c(OC)c(OC)cc12	–	–	Tmax [4]: 15 min; half-life [5]: 120 min; fraction unbound [6]: 0.18; Ratio (Nucleic Acid [7]): 0.28; Tmax [8]: 15 min; half-life [9]: 39.6 min; fraction unbound [10]: 0.1; blood plasma ratio [11]: 0.4; Ratio (Nucleic Acid [12]): 0.9; Cmax [13]: 10.9 µM; half-life [14]: 306 min
COc1cc2ncnc(N3CC(O)CC(c4ccccc4)C3)c2cc1OC (stereo not drawn)	–	–	IC50 [1]: 3 nM
COc1ccc2c(N3C[C@H](C)C[C@H](C)C3)ncnc2c1OC	–	70 nM	–
COc1ccc2c(C(C)c3cccc(Cl)c3)ncnc2c1OC (stereo not drawn)	–	22 nM	–
COc1ccc2c(C3CCc4ccc(Br)cc43)ncnc2c1OC (stereo not drawn)	–	8 nM	–

Second part, led by results:

inhibition [2]	IC50 [3]	SMILES	further results
0%	–	COc1cc2c(N3C[C@H](C)C[C@H](C)C3)cnnc2c(OC)c1OC	–
–	230 nM	COc1cc2ncnc(C(C)c3cccc(Cl)c3)c2cc1OC (stereo not drawn)	–
–	458 nM	COc1ccc2c([C@@H]3CCc4ccc(Cl)cc43)nccc2c1OC	–
0%	–	COc1ccc2c(N3C[C@H](C)C[C@H](C)C3)nccc2c1OC	–
24%	–	COc1cc2ncnc(Cc3cccc(Cl)c3)c2cc1OC	–
0%	–	COc1ccc2c(N3C[C@H](C)C[C@H](C)C3)ccnc2c1OC	–
–	83 nM	COc1cc2ncnc(C3CCc4ccc(Cl)cc43)c2cc1OC (stereo not drawn)	–
0%	–	COc1cc2c(N3C[C@H](C)C[C@H](C)C3)nncc2c(OC)c1OC	–
–	38 nM	COc1ccc2c(C3CCc4ccc(F)cc43)ncnc2c1OC (stereo not drawn)	–
